Data taken from ChEMBL document CHEMBL1201862, “PubChem BioAssay data set” (2004).
Where a name gives a salt, the structure may show the parent alone. Activity calls are given as the source filed them.

Tests used:
[1] = molecular target: Voltage-gated inwardly rectifying potassium channel KCNH2 (Homo sapiens, UniProt Q12809); settings: Potency;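 also: confirmatory quantitative high-throughput screen measuring inhibition of hERG channel activity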
Genome polyprotein = Genome polyprotein (dengue virus type 2, UniProt P29990); test: Dengue-2 NS5 methyltransferase inhibitors, primary screen, biochemical, confirmation dose response (AID 588689); format: functional
HeLa = test: HeLa cell cytotoxicity, dose response, cytotoxicity control for MITF activator project, CellTiter-Glo luminescence, cherry-pick samples (AID 540259); format: functional, cell-based; settings: Homo sapiens
[2] = molecular target: T1, Tyrosyl-DNA phosphodiesterase 2 (Homo sapiens, UniProt O95551); test: human TDP2 enzyme inhibitors, dose response, biochemical, epi absorbance, IC50 (AID 743297)
T1 sequence (O95551 whole entry): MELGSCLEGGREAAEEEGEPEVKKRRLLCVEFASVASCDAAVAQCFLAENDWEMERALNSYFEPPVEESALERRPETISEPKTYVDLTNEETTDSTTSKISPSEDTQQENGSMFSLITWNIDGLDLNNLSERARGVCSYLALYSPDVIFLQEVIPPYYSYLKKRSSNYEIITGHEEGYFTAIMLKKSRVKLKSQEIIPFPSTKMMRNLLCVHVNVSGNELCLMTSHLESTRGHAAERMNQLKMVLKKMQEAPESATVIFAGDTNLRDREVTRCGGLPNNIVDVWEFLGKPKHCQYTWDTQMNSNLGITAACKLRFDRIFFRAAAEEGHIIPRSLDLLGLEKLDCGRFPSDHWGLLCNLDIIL

Cytochrome P450 3A4 = Cytochrome P450 3A4 (Homo sapiens, UniProt P08684);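 also: CYP3A4 tested as one member of a cytochrome P450 panel screen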
[3] = molecular target: T2, Replicative DNA helicase DnaB (Mycobacterium tuberculosis, UniProt P9WMR3); test: DnaB intein splicing inhibitors, dose response, biochemical, cell-free fluorescence (AID 449749); format: functional
T2 sequence (P9WMR3 whole entry): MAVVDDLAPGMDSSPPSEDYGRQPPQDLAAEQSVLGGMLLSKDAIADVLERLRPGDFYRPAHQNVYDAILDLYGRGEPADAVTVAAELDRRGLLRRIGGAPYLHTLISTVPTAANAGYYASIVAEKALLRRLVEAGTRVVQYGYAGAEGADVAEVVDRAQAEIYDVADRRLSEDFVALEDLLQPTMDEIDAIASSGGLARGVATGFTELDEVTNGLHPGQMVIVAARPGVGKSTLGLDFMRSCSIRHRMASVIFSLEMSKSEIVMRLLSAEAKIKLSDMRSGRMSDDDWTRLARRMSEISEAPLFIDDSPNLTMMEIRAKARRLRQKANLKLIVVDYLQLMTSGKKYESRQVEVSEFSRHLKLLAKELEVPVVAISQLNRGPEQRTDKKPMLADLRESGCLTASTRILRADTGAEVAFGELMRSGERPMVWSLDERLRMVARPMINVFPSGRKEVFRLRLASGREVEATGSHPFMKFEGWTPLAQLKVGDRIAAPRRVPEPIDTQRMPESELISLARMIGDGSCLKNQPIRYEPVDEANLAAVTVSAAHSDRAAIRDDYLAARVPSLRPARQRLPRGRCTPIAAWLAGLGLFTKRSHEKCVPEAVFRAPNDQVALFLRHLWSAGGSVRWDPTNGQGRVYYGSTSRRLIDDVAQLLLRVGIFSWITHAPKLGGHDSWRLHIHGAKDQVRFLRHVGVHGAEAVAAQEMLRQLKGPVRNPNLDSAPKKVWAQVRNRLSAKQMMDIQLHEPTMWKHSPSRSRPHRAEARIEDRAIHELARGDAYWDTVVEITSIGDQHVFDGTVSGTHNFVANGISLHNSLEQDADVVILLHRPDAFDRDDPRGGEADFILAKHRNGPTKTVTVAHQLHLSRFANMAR

Protein RecA = molecular target: T3, Protein RecA (Mycobacterium tuberculosis, UniProt P9WHJ3); test: Fluorescence Cell-Free Homogeneous Dose Retest to Identify Inhibitors of RecA-Intein Splicing Activity. [Related pubchem assays (depositor defined):AID2097, AID2223, AID489010, AID492950]; format: functional
T3 sequence (P9WHJ3 whole entry): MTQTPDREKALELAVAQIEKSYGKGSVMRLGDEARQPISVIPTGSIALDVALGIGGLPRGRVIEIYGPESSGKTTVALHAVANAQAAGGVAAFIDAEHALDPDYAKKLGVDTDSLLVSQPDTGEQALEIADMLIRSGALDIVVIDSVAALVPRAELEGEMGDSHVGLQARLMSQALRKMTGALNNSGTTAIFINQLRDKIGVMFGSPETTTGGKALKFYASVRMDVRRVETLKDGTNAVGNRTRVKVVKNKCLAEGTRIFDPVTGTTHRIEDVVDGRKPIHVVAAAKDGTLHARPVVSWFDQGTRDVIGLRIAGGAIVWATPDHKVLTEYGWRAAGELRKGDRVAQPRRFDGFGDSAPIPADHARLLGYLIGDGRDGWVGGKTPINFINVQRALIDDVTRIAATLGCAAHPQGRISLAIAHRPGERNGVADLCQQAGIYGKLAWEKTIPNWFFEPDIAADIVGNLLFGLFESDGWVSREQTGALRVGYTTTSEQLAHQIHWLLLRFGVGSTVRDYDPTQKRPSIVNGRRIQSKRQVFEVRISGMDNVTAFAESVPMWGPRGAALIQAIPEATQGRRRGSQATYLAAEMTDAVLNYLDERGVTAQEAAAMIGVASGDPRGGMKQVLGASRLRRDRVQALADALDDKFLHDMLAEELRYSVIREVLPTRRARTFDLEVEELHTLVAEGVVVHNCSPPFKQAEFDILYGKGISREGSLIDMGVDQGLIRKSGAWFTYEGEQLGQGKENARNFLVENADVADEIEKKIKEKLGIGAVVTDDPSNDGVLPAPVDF

[4] = inhibitors of intracellular T. cruzi replication, confirmation, NIH3T3 host cells, beta-gal luminescence (AID 2044); format: functional, cell-based;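 also: intracellular parasites grown in NIH/3T3 mouse fibroblasts as host cells; luminescent beta-galactosidase reporter signal from transgenic T. cruzi replicating inside host cells; inhibitors lower the luminescence signal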
[5] = cytotoxicity toward NIH3T3 fibroblasts, dose response, counter-screen, cell-based, ATP luminescence, mouse fibroblasts (AID 2010); format: functional;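 also: cells exposed to compound for about 90 hours before reading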
BJ [6] = test: cytotoxicity toward BJ-TERT-LT-ST fibroblasts, dose response, cell-based, RAS-independent, luminescence (AID 1935); format: functional; settings: Homo sapiens;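 also: BJ fibroblasts immortalized with TERT plus LT and ST oncogenes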
BJ [7] = test: cytotoxicity toward Ras-transformed BJeLR fibroblasts, dose response, cell-based, alamar blue fluorescence, cherrypicked samples (AID 2631); format: functional; settings: Homo sapiens;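 also: confirmatory dose-response assay in RAS-dependent BJ fibroblasts engineered with TERT, LT and ST, with cytotoxicity read by fluorescence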
BJ [8] = test: cells; format: functional, cell-based; settings: Homo sapiens
[9] = cytotoxicity toward DRD oncogenic fibroblasts, dose response, cell-based, non-viral oncogenic, luminescence (AID 1934); format: functional; settings: Homo sapiens
BJ [10] = test: cytotoxicity toward BJ-TERT fibroblasts, dose response, cell-based, RAS-independent, luminescence (AID 1933); format: functional; settings: Homo sapiens
[11] = molecular target: T4, Apoptotic protease-activating factor 1 (Homo sapiens, UniProt O14727); format: functional
T4 sequence (O14727 whole entry): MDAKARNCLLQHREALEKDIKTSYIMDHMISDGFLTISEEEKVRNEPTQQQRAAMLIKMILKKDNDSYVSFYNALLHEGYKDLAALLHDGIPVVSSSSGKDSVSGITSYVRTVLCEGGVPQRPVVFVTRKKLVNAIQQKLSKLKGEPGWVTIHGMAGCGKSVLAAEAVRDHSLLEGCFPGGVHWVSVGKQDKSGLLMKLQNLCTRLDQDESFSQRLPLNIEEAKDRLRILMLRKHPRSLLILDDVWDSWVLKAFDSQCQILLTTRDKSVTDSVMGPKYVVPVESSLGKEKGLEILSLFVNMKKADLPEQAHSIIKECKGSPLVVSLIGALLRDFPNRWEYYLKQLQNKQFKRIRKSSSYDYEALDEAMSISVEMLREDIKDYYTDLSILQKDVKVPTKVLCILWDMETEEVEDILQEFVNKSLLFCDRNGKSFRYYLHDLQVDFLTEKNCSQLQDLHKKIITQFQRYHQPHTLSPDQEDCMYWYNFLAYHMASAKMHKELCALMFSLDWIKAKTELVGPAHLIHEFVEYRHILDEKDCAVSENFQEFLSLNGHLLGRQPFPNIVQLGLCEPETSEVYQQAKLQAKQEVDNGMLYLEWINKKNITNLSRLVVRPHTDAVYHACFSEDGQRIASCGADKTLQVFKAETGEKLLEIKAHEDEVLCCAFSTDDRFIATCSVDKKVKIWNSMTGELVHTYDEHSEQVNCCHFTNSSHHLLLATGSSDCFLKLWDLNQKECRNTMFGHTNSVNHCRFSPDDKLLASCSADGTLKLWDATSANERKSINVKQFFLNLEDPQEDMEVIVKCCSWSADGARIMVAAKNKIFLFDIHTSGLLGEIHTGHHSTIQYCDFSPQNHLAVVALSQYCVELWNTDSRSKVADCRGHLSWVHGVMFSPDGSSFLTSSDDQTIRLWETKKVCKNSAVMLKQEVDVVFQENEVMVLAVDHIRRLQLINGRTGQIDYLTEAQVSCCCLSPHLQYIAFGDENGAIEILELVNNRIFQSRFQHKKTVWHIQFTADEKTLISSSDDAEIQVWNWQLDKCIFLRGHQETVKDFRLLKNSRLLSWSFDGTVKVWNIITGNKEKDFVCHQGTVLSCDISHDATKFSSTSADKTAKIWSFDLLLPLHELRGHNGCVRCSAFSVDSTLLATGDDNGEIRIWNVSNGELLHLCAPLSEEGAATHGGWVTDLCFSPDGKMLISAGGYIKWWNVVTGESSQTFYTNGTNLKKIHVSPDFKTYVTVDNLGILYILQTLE

[12] = molecular target: T5, Heat shock factor protein 1 (Mus musculus, UniProt P38532); test: HSF1 potentiators in luciferase reporter cells, confirmation, cell-based, NIH3T3, luminescence, dose retest (AID 435004); format: functional;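 also: stress induced by proteasome inhibitor MG132 added 30 min after compound; luciferase reporter driven by HSF1 response element in NIH3T3 cells; actives raise luminescence as potentiators of the MG132 stress response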
T5 sequence (P38532 whole entry): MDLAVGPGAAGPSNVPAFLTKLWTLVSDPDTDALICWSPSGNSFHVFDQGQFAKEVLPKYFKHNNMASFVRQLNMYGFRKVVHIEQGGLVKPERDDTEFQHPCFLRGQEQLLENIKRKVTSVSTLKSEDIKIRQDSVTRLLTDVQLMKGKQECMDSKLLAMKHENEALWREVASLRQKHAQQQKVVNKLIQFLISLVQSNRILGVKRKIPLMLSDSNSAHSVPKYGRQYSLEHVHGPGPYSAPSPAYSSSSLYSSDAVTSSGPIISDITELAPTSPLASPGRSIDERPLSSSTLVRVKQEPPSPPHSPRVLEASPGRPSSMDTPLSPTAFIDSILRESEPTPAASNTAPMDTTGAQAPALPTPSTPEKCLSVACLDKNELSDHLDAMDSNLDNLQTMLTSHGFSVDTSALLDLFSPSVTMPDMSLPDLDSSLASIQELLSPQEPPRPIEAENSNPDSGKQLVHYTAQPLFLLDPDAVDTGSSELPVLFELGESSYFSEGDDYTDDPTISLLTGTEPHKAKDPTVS

Chain of Voltage-gated inwardly rectifying potassium channel KCNH2 (Q12809 whole entry): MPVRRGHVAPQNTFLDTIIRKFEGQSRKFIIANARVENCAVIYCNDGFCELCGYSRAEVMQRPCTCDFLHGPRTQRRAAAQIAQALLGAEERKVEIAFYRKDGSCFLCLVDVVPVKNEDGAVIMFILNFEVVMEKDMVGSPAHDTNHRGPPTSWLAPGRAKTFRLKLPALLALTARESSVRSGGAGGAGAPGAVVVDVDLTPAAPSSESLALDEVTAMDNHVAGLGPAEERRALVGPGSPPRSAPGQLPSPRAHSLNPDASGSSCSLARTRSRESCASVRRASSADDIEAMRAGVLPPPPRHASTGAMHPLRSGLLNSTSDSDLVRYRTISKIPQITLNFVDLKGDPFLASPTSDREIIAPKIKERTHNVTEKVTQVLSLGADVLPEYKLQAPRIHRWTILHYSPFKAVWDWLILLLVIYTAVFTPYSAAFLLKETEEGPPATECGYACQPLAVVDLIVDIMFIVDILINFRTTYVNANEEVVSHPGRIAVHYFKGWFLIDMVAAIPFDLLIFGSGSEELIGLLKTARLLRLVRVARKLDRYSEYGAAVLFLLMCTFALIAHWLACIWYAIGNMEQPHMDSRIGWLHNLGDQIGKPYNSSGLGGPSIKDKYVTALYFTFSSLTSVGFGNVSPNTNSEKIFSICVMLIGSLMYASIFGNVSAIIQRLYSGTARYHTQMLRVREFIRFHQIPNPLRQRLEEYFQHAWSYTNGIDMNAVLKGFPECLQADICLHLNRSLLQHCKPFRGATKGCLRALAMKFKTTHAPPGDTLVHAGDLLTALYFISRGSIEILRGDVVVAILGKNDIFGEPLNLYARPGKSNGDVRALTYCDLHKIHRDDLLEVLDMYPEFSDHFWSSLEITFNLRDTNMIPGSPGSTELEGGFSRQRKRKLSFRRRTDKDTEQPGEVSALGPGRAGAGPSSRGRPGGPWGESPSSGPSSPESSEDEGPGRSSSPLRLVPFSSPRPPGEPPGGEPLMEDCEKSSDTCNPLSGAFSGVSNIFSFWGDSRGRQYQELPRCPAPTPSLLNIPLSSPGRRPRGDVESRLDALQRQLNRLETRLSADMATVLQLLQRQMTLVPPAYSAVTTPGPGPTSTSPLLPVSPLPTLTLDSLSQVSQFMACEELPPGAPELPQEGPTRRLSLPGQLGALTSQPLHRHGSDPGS
Chain of Genome polyprotein (P29990 2492-3391 limits assumed): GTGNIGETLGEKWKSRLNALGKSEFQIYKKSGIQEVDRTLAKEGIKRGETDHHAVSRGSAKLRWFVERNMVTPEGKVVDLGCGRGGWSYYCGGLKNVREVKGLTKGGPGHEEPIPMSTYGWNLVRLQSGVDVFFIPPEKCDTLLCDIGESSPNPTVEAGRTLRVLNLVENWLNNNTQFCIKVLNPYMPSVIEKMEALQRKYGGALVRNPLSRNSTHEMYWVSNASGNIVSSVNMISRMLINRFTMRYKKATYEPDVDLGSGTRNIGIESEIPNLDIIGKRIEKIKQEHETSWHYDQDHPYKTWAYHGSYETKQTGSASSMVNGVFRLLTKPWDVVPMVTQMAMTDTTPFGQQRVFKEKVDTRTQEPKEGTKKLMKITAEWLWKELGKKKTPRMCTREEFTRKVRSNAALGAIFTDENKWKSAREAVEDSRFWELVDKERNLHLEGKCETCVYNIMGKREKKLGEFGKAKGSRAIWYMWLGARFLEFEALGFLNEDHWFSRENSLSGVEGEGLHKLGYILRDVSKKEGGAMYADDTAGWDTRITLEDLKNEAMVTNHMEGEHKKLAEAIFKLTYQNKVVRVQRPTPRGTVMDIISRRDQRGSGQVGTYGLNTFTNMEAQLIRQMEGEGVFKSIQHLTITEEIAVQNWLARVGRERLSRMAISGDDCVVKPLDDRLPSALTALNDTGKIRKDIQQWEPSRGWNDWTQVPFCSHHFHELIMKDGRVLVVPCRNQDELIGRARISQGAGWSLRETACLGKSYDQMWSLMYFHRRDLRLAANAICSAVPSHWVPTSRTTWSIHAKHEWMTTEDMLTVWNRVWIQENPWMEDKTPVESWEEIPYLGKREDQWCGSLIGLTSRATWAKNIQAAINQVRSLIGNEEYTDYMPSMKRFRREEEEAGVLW
Chain of Cytochrome P450 3A4 (P08684 whole entry): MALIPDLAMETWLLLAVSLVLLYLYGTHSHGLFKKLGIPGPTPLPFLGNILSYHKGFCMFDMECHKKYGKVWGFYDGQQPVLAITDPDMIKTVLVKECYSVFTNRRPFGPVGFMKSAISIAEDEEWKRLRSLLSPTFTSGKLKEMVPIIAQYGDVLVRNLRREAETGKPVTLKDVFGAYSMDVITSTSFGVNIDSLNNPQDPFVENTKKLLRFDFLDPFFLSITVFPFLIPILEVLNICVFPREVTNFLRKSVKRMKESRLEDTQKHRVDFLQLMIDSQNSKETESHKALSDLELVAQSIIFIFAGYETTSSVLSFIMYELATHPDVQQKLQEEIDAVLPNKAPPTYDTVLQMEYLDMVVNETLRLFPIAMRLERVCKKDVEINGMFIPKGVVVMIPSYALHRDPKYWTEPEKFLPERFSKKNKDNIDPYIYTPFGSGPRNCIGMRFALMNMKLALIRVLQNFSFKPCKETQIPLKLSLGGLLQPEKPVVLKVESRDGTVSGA

Compound: COC(=O)[C@H]1[C@H]2C[C@H]3c4[nH]c5ccccc5c4CCN3C[C@H]2CC[C@@H]1O [RAUWOLSCINE HYDROCHLORIDE]
- AC50 [1]: 25.1 µM (inconclusive)

Compound: CCOC(=O)C1OC1c1ccccc1 (configuration not stated)
- AC50 [1]: 35.5 µM (inconclusive)

Compound: CCCCC1=CC2=CC(=O)C(C)(OC(=O)CC)C(=O)C2=CN1Cc1ccc(OC)cc1 (configuration not stated)
- IC50 (Genome polyprotein): > 100 µM (active)

Compound: C(=NC1CCCCC1)=NC1CCCCC1 [DICYCLOHEXYLCARBODIIMIDE]
- AC50 [1]: 70.8 µM (inconclusive)

Compound: C1=C(c2cc3ccccc3cn2)CCCC1
- AC50 (HeLa): 51.3 µM (active)

Compound: C[C@H](N)CN1CCc2ccc(Br)cc21
- AC50 [1]: 20 µM (inconclusive)

Compound: CC(=O)Nc1c(-c2ccc3ccccc3c2)nc2ccccn12
- AC50 (HeLa): 213 µM (active)

Compound: CC(=O)c1ccc(NC(=O)c2noc3c2CCCCC3)cc1
- AC50 (HeLa): > 350 µM (inactive)

Compound: Cc1cc(CN(C)C(=O)c2ccc3nc(Cc4ccccc4F)oc3c2)on1
- AC50 (HeLa): 68.2 µM (active)

Compound: CCOc1cc(/C=C2/C(=O)N(c3ccccc3)N=C2C)ccc1OC(=O)c1ccco1
- IC50 [2]: 119 µM (inactive)
- AC50 (Cytochrome P450 3A4): 25.1 µM (inconclusive)
- AC50 [3]: 2.68 µM (active)
- EC50 (Protein RecA): 1.64 µM (active)

Compound: CCn1cnc2c(Nc3cccc(Cl)c3)nc(N[C@@H]3CCCC[C@@H]3N)nc21
- AC50 [1]: 17.8 µM (inconclusive)

Compound: Cc1ccc(Nc2cc(C)c3c(O)cccc3n2)cc1C
- AC50 (HeLa): 34.5 µM (active)
- EC50 [4]: 2.81 µM (active)
- EC50 [5]: > 30 µM (not active)

Compound: O=[N+]([O-])c1ccccc1N/N=C\c1ccccc1Cl
- EC50 (BJ [6]): > 150 µM (not active)
- EC50 (BJ [7]): > 133 µM (inactive)
- EC50 (BJ [8]): 103 µM (active)
- EC50 [9]: 29.8 µM (inconclusive)
- EC50 (BJ [10]): > 150 µM (not active)

Compound: [H][C@]12[N@]3CC=C[C@@]1(CC)[C@@H](OC(C)=O)[C@](O)(C(=O)OC)C1N(C)c4cc(OC)c([C@@]5(C(=O)OC)CC6CN(CCc7c5[nH]c5ccccc75)CC(O)(CC)C6)cc4[C@@]12CC3 (some centres not stated)
- AC50 [1]: 35.5 µM (inconclusive)

Compound: COc1ccc(CN(C)C(=O)c2cc(S(=O)(=O)NCc3ccccc3)ccc2C)c(OC)c1
- IC50 [11]: > 100 µM (inactive)

Compound: C#C[C@]1(O)CC[C@H]2[C@@H]3CCC4=Cc5oncc5CC4(C)[C@H]3CCC21C (some centres not stated)
- AC50 [1]: 1.58 µM (inconclusive)

Compound: O=C(O)C(Cc1ccccc1)N1C(=O)c2c(Cl)c(Cl)c(Cl)c(Cl)c2C1=O (configuration not stated)
- EC50 [12]: 37.1 µM (active)
- IC50 (Genome polyprotein): 39.7 µM (active)
